What is called CC50 is the concentration that lowers cell viability or growth by half. For orientation: IC50 means the concentration that inhibits the measured activity by half.

This is an account of results in ChEMBL document CHEMBL5096171, “Synthesis and Biological Evaluation of PSMA Ligands with Aromatic Residues and Fluorescent Conjugates Based on Them” (J Med Chem, 2021).

Data set [1] concerns MCF7. In words: Cytotoxicity against human MCF7 cells assessed as cell growth inhibition incubated for 5 days by MTT assay. It is filed as functional. The conditions noted are these: MCF7, 120 h, time 5 day.
Data set [2] is described as follows: Cytotoxicity against human WI-38 VA13 cells assessed as cell growth inhibition incubated for 5 days by MTT assay. The conditions noted are these: time 5 day. Type of data set: toxicity, cell-based.
The nature of data set [3]: Cytotoxicity against HEK293T cells assessed as cell growth inhibition incubated for 5 days by MTT assay. It is filed as toxicity, cell-based, HEK-293T. The conditions noted are these: human, time 5 day. A general note: Formazan colour is commonly taken as a measure of viable cells.
Data set [4] relates to A549. Description: Cytotoxicity against human A549 cells assessed as cell growth inhibition incubated for 5 days by MTT assay. It is filed as functional. Conditions: A549, 120 h, time 5 day.
For data set [5], the target named is Glutamate carboxypeptidase 2 (Homo sapiens, UniProt Q04609). Description: Inhibition of PSMA derived from human LNCaP cell lysate assessed as inhibition of NAAG hydrolysis incubated for 2 hrs in presence of NAAG by Amplex Red assay. It is filed as subcellular.
Sequence of Glutamate carboxypeptidase 2 (Q04609 whole entry): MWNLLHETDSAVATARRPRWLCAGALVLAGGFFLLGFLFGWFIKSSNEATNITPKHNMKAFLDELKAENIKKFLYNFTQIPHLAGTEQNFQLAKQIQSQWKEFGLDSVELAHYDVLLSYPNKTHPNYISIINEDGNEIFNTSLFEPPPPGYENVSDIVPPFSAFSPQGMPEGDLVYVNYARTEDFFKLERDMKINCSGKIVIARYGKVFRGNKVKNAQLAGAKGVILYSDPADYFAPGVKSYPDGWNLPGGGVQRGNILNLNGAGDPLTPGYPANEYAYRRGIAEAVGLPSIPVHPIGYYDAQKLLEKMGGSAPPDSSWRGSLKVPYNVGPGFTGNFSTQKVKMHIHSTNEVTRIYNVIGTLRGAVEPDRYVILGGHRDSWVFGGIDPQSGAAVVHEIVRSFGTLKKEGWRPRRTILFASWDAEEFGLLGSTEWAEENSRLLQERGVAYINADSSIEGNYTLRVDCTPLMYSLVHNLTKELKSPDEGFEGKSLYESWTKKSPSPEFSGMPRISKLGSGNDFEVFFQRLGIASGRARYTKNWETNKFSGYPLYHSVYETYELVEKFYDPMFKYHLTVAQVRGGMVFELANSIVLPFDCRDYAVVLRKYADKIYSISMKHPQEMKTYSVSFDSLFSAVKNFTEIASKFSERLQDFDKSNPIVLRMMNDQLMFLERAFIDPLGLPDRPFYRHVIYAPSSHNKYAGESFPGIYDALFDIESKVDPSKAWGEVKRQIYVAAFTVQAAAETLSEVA

In the case of `NCCCC[C@H](NC(=O)N[C@@H](CCC(=O)O)C(=O)O)C(=O)O`, the CC50 in data set [1] and in data set [4] was over 100 µM in each case. In addition, the CC50 at 120 h in data set [2] and in data set [3] was over 100 µM each time.
With `[N-]=[N+]=NCCCNC(=O)[C@H](Cc1ccccc1)NC(=O)[C@H](Cc1ccccc1)NC(=O)CCC(=O)NCCCCCC(=O)N(CCCC[C@H](NC(=O)N[C@@H](CCC(=O)O)C(=O)O)C(=O)O)Cc1ccc(Cl)c(F)c1`, the cytotoxic concentration (CC50) in data set [1] and in data set [4] was over 100 µM each time. In addition, the CC50 at 120 h is over 100 µM in data set [2] and 71 µM in data set [3]. Besides, the IC50 in data set [5] came to 0.063 µM.
As for `[N-]=[N+]=NCCCNC(=O)[C@H](Cc1ccc(O)cc1)NC(=O)[C@H](Cc1ccccc1)NC(=O)CCC(=O)NCCCCCC(=O)N(CCCC[C@H](NC(=O)N[C@@H](CCC(=O)O)C(=O)O)C(=O)O)Cc1ccc(Cl)cc1`, in data set [5], the IC50 is 0.046 µM.
On the same count and under the same terms, in the case of `[N-]=[N+]=NCCCNC(=O)[C@@H](Cc1ccc(O)c(Br)c1)NC(=O)[C@@H](Cc1ccccc1)NC(=O)CCC(=O)NCCCCCC(=O)N(CCCC[C@H](NC(=O)N[C@@H](CCC(=O)O)C(=O)O)C(=O)O)Cc1cccc(Cl)c1` it was 0.08 µM; in that of `[N-]=[N+]=NCCCNC(=O)[C@@H](Cc1ccc(O)cc1)NC(=O)[C@@H](Cc1ccccc1)NC(=O)CCC(=O)NCCCCCC(=O)N(CCCC[C@H](NC(=O)N[C@@H](CCC(=O)O)C(=O)O)C(=O)O)Cc1ccc(Cl)c(F)c1`, 0.108 µM.
For `[N-]=[N+]=NCCCNC(=O)[C@H](Cc1ccc(O)cc1)NC(=O)[C@H](Cc1ccccc1)NC(=O)CCC(=O)NCCCCCC(=O)N(CCCC[C@H](NC(=O)N[C@@H](CCC(=O)O)C(=O)O)C(=O)O)Cc1ccc(Br)cc1`, the half-maximal cytotoxic concentration (CC50) in data set [1] and in data set [4] was over 100 µM in each case. In addition, the 50% cytotoxic concentration (CC50) at 120 h in data set [2] and in data set [3] was over 100 µM each time. For the same molecule, in data set [5], the IC50 came to 0.017 µM.
For the molecule `[N-]=[N+]=NCCCNC(=O)[C@H](Cc1ccccc1)NC(=O)[C@H](Cc1ccccc1)NC(=O)CCC(=O)NCCCCCC(=O)N(CCCC[C@H](NC(=O)N[C@@H](CCC(=O)O)C(=O)O)C(=O)O)Cc1ccc(Cl)cc1`, the IC50 in data set [5] stood at 0.055 µM.
Turning to `[N-]=[N+]=NCCCNC(=O)[C@H](Cc1ccccc1)NC(=O)[C@H](Cc1ccccc1)NC(=O)CCC(=O)NCCCCCC(=O)N(CCCC[C@H](NC(=O)N[C@@H](CCC(=O)O)C(=O)O)C(=O)O)Cc1ccccc1`, the 50% cytotoxic concentration (CC50) in data set [1] and in data set [4] was over 100 µM throughout. For the same molecule, the CC50 at 120 h was over 100 µM in data set [2] and 114 µM in data set [3]. Also, the IC50 in data set [5] was determined as 0.028 µM.
On to `[N-]=[N+]=NCCCNC(=O)[C@@H](Cc1ccccc1)NC(=O)[C@@H](Cc1ccccc1)NC(=O)CCC(=O)NCCCCCC(=O)N(CCCC[C@H](NC(=O)N[C@@H](CCC(=O)O)C(=O)O)C(=O)O)Cc1ccc(Br)cc1`, for which the cytotoxic concentration (CC50) in data set [1] and in data set [4] was over 100 µM each time. Further, the half-maximal cytotoxic concentration (CC50) at 120 h in data set [2] was over 100 µM; in data set [3], 88 µM. In addition, in data set [5], the IC50 was determined as 0.319 µM.
For `[N-]=[N+]=NCCCNC(=O)[C@H](Cc1ccccc1)NC(=O)[C@H](Cc1ccccc1)NC(=O)CCC(=O)NCCCCCC(=O)NCCCC[C@H](NC(=O)N[C@@H](CCC(=O)O)C(=O)O)C(=O)O`, the 50% cytotoxic concentration (CC50) in data set [1] and in data set [4] was over 100 µM throughout. Besides, the CC50 at 120 h in data set [2] was over 100 µM; in data set [3], 62 µM.
In the case of `[N-]=[N+]=NCCCNC(=O)[C@@H](Cc1ccccc1)NC(=O)[C@@H](Cc1ccccc1)NC(=O)CCC(=O)NCCCCCC(=O)N(CCCC[C@H](NC(=O)N[C@@H](CCC(=O)O)C(=O)O)C(=O)O)Cc1cccc(Cl)c1`, the IC50 in data set [5] stood at 0.046 µM.
For the molecule `[N-]=[N+]=NCCCNC(=O)[C@H](Cc1ccccc1)NC(=O)[C@H](Cc1ccccc1)NC(=O)CCC(=O)NCCCC(=O)N(CCCC[C@H](NC(=O)N[C@@H](CCC(=O)O)C(=O)O)C(=O)O)Cc1ccccc1`, the CC50 in data set [1] and in data set [4] was over 100 µM throughout. The CC50 at 120 h in data set [2] and in data set [3] was over 100 µM each time. Besides, in data set [5], the IC50 is 0.175 µM.
Turning to `[N-]=[N+]=NCCCNC(=O)[C@H](Cc1ccccc1)NC(=O)[C@H](Cc1ccccc1)NC(=O)CCC(=O)NCCCCCC(=O)N(CCCC[C@H](NC(=O)N[C@@H](CCC(=O)O)C(=O)O)C(=O)O)Cc1cccc(Cl)c1`, the concentration for half-maximal inhibition (IC50) in data set [5] was found to be 0.038 µM.
Turning to `[N-]=[N+]=NCCCNC(=O)[C@H](Cc1ccccc1)NC(=O)[C@H](Cc1ccccc1)NC(=O)CCC(=O)NCCCCCC(=O)N(CCCC[C@H](NC(=O)N[C@@H](CCC(=O)O)C(=O)O)C(=O)O)Cc1ccc(Br)cc1`, the cytotoxic concentration (CC50) in data set [1] and in data set [4] was over 100 µM throughout. The cytotoxic concentration (CC50) at 120 h in data set [2] and in data set [3] was over 100 µM in each case. In data set [5], the IC50 came out at 0.05 µM.
For the molecule `[N-]=[N+]=NCCCNC(=O)[C@H](Cc1ccccc1)NC(=O)[C@H](Cc1ccccc1)NC(=O)CCC(=O)NCCCCCC(=O)N(CCCC[C@H](NC(=O)N[C@@H](CCC(=O)O)C(=O)O)C(=O)O)Cc1ccc(Cl)cc1F`, the CC50 in data set [1] and in data set [4] was over 100 µM throughout. Further, the CC50 at 120 h in data set [2] and in data set [3] was over 100 µM in each case. Further, in data set [5], the IC50 is 0.043 µM.
On to `[N-]=[N+]=NCCCNC(=O)[C@@H](Cc1ccccc1)NC(=O)[C@@H](Cc1ccccc1)NC(=O)CCC(=O)NCCCCCC(=O)N(CCCC[C@H](NC(=O)N[C@@H](CCC(=O)O)C(=O)O)C(=O)O)Cc1ccc(Cl)c(F)c1`, for which the CC50 in data set [1] and in data set [4] was over 100 µM throughout. For the same molecule, the CC50 at 120 h was over 100 µM in data set [2] and 51 µM in data set [3]. In data set [5], the IC50 came out at 0.294 µM.
With `[N-]=[N+]=NCCCNC(=O)[C@@H](Cc1ccc(O)cc1)NC(=O)[C@@H](Cc1ccccc1)NC(=O)CCC(=O)NCCCCCC(=O)N(CCCC[C@H](NC(=O)N[C@@H](CCC(=O)O)C(=O)O)C(=O)O)Cc1ccc(Br)cc1`, in data set [5], the half-maximal inhibitory concentration (IC50) came to 3.16 µM.
Still for that read-out and setting: the figure for `[N-]=[N+]=NCCCNC(=O)[C@@H](Cc1ccccc1)NC(=O)[C@@H](Cc1ccccc1)NC(=O)CCC(=O)NCCCCCC(=O)N(CCCC[C@H](NC(=O)N[C@@H](CCC(=O)O)C(=O)O)C(=O)O)Cc1ccc(Cl)cc1` is 0.226 µM.
With `[N-]=[N+]=NCCCNC(=O)[C@H](Cc1ccc(O)cc1)NC(=O)[C@H](Cc1ccccc1)NC(=O)CCC(=O)NCCCCCC(=O)N(CCCC[C@H](NC(=O)N[C@@H](CCC(=O)O)C(=O)O)C(=O)O)Cc1ccc(Cl)c(F)c1`, the 50% cytotoxic concentration (CC50) in data set [1] and in data set [4] was over 100 µM in each case. For the same molecule, the CC50 at 120 h in data set [2] and in data set [3] was over 100 µM in each case. Further, the half-inhibitory concentration (IC50) in data set [5] was 0.062 µM.
On to `[N-]=[N+]=NCCCNC(=O)[C@@H](Cc1ccc(O)cc1)NC(=O)[C@@H](Cc1ccccc1)NC(=O)CCC(=O)NCCCCCC(=O)N(CCCC[C@H](NC(=O)N[C@@H](CCC(=O)O)C(=O)O)C(=O)O)Cc1ccc(Cl)cc1`, for which the concentration for half-maximal inhibition (IC50) in data set [5] stood at 0.027 µM.
Still for that read-out and setting: in the case of `[N-]=[N+]=NCCCNC(=O)[C@@H](Cc1ccc(O)c(Br)c1)NC(=O)[C@@H](Cc1ccccc1)NC(=O)CCC(=O)NCCCCCC(=O)N(CCCC[C@H](NC(=O)N[C@@H](CCC(=O)O)C(=O)O)C(=O)O)Cc1ccc(Br)cc1` it was 0.089 µM; in that of `[N-]=[N+]=NCCCNC(=O)[C@@H](Cc1ccc(O)cc1)NC(=O)[C@@H](Cc1ccccc1)NC(=O)CCC(=O)NCCCCCC(=O)N(CCCC[C@H](NC(=O)N[C@@H](CCC(=O)O)C(=O)O)C(=O)O)Cc1cccc(Cl)c1`, 0.107 µM.
